Measurements reported in patent US7972793B2, “Methods and compositions for the treatment of psychotic disorders through the identification of the SULT4A1-1 haplotype” (Suregene, LLC, priority 2009, dated 2011).
Like-named read-outs stand apart in the source and are kept apart here. Marks after values point to notes of the source that are not given here.

What was measured:
[1] = test system: CATIE Caucasian schizophrenia patients; assay: CATIE Phase 1 drug response: change in total PANSS (LOCF), drug switchers, segmented by SULT4A1-1 status; assay type: in vivo, human; details: for ≦−20% (number of individuals with this percent change in total PANSS; responders) / ≧−20% (number of individuals with this percent change in total PANSS; non-responders): LOCF; for Non Responder (number) / Responder (number): Table 16, 20% decrease in PANSS threshold
Excerpt: There are several different metrics for quantifying response in clinical trials of antipsychotic medications. The most commonly used psychometric instrument is the Positive and Negative Syndrome Scale (PANSS), a 30-item semi-quantitative instrument scored by clinical professionals (Kay et al., 1987). The greater the decrease in PANSS score, the better the clinical response. The most direct measure of clinical response is absolute change in PANSS score. In addition to absolute change, the improvement is often reported as a percentage change from baseline PANSS score.
A decrease of at least 20% in total PANSS is one commonly used threshold for response (Leucht et al., 2009).
The design of the CATIE study has been described in detail by others (Lieberman et al., 2005; Stroup et al., 2003). […] A total of 738 subjects consented to provide DNA for genetic study. […] Retrospective genetic analyses, judged to be exempt from human studies requirements by an IRB, were conducted in the current study.
All tested patients were studied using well established clinical endpoints comparing baseline, intermediate, and last observation carried forward (LOCF) for the PANSS scores using CATIE data. LOCF analysis is a commonly used clinical endpoint for clinical trials for neuropsychiatric drugs, with changes in PANSS scores of between negative 20% and negative 30% used as typical endpoints to indicate clinically significant response (Leucht et al., 2009). To remove time on drug as a variable for the CATIE trial, analysis was limited to only those patients who were randomized to a different drug following the initial washout period (drug switchers).
As mentioned previously, the mean change in absolute or percent PANSS provides an important measure of efficacy in patients undergoing antipsychotic treatments. Indeed, many pivotal trials in the psychosis field used absolute and/or percentage change in PANSS Score as the primary endpoint (Leucht et al., 2009). […] Therefore, in addition to examining a categorical definition of clinically significant response, the inventors determined the impact of segmentation by SULT4A1-1 status on the quantitative measure of clinical improvement—delta PANSS.

[2] = test system: CATIE African American schizophrenia patients; assay: CATIE drug response: change in total PANSS (LOCF), segmented by SULT4A1-1 status, African Americans; assay type: in vivo, human
Method: The design of the CATIE study has been described in detail by others (Lieberman et al., 2005; Stroup et al., 2003). […] A total of 738 subjects consented to provide DNA for genetic study. […] Retrospective genetic analyses, judged to be exempt from human studies requirements by an IRB, were conducted in the current study. All tested patients were studied using well established clinical endpoints comparing baseline, intermediate, and last observation carried forward (LOCF) for the PANSS scores using CATIE data. […] To remove time on drug as a variable for the CATIE trial, analysis was limited to only those patients who were randomized to a different drug following the initial washout period (drug switchers).

[3] = test system: CATIE Caucasian schizophrenia patients; assay: Time to discontinuation for all causes in the CATIE study; assay type: in vivo, human
Excerpt: The primary endpoint for the CATIE study was time to discontinuation for all causes (Lieberman et al., 2005). Thus the inventors evaluated the effect of SULT41-1 status on this important parameter.

[4] = test system: CATIE schizophrenia patients; assay: Length of successful treatment by the CGI scale (TMSUCC1) in CATIE; assay type: in vivo, human
Excerpt: The CATIE clinical data set included the Clinical Global Impression (CGI) Scale, an observer-provided assessment of the psychiatric health of the patient (Stroup et al., 2003; Guy 1976). Patients are rated with the CGI Scale from 1 to 7, with higher scores indicating greater severity of illness. The CATIE study provided a response variable that measured the time (in months) of successful treatment as measured by the CGI scale (“TMSUCC1” in the CATIE data).
The CATIE clinical data set included Clinical Global Impression (CGI) Scale, an observer-provided assessment of the psychiatric health of the patient (Stroup et al., 2003; Guy 1976). Patients are rated with the CGI Scale from 1 to 7, with higher scores indicating greater severity of illness. The CATIE study provided a response variable that measured the time (in months) of successful treatment as measured by the CGI scale (“TMSUCC1” in the CATIE data).

CATIE Caucasian subjects = assay: Rate of hospitalization due to exacerbation of psychosis in CATIE by SULT4A1-1 status; assay type: in vivo, human
Excerpt: For this analysis, the inventors assigned a dichotomous value (positive or negative) for hospitalization status to subjects in each phase of the trial based on only the first hospitalization event for a given patient in that phase.

[5] = test system: CATIE Phase I non-responders; details: CATIE Phase II, LOCF; for Responders (number): decrease PANSS ≧ 20%
[6] = SULT4A1-1 Negative, CATIE Caucasians
[7] = SULT4A1-1 Positive, CATIE Caucasians
[8] = SULT4A1-1 negative group (sign not given)
[9] = SULT4A1-1 positive group (sign not given)
[10] = olanzapine SULT4A1-1 + vs olanzapine SULT4A1-1 −, CATIE
[11] = olanzapine SULT4A1-1 + vs perphenazine SULT4A1-1 +, CATIE
[12] = olanzapine SULT4A1-1 + vs quetiapine SULT4A1-1 +, CATIE
[13] = olanzapine SULT4A1-1 + vs risperidone SULT4A1-1 +, CATIE
[14] = olanzapine SULT4A1-1 + vs unsegmented (all drugs), CATIE
[15] = olanzapine SULT4A1-1 + vs unsegmented SULT4A1-1 +, CATIE
[16] = olanzapine SULT4A1-1 + vs unsegmented olanzapine, CATIE
[17] = olanzapine SULT4A1-1 + vs ziprasidone SULT4A1-1 +, CATIE
[18] = SULT4A1-1 Positive, CATIE Phases 1, 2 and/or 3
[19] = SULT4A1-1 negative, CATIE Phases 1, 2 and/or 3
[20] = Unsegmented, CATIE Phases 1, 2 and/or 3

For `Cc1cc2c(s1)Nc1ccccc1N=C2N1CCN(C)CC1` [Olanzapine], the “DELTA PANSS % (mean change in PANSS score from baseline to LOCF)” value [1, 6] was −3*** %, the “≦−20% (number of individuals with this percent change in total PANSS; responders)” value [1, 6] was 10 and the “≧−20% (number of individuals with this percent change in total PANSS; non-responders)” value [1, 6] was 33. For the same compound, the “DELTA PANSS % (mean change in PANSS score from baseline to LOCF)” value ([1]; SULT4A1-1 Negative, CATIE Caucasians, listed as olanzapine) was −3%, the “DELTA PANSS % (mean change in PANSS score from baseline to LOCF)” value [1, 7] was −24% and the “≦−20% (number of individuals with this percent change in total PANSS; responders)” value [1, 7] was 10. For the same compound, the “≧−20% (number of individuals with this percent change in total PANSS; non-responders)” value [1, 7] was 5, the “Non Responder (number)” value [1, 8] was 33 and the “Responder (number)” value [1, 8] was 10. For the same compound, the “Non Responder (number)” value [1, 9] was 5, the “Responder (number)” value [1, 9] was 10 and the Effect size ([1]; olanzapine SULT4A1-1 + vs SULT4A1-1 + except olanzapine, CATIE) was 0.68. The Effect size [1, 10] was 0.93, the “Mean difference (95% CI) in delta PANSS” value [1, 10] was −20.9 (−33.4 to −8.4) and the Effect size [1, 11] was 0.68. The “Mean difference (95% CI) in delta PANSS” value [1, 11] was −14.2 (−29.8 to 1.4), the Effect size [1, 12] was 0.75 and the “Mean difference (95% CI) in delta PANSS” value [1, 12] was −14.9 (−28.3 to −1.5). The Effect size [1, 13] was 0.93, the “Mean difference (95% CI) in delta PANSS” value [1, 13] was −20.9 (−33.2 to −6.0) and the Effect size [1, 14] was 0.83. For the same compound, the “Mean difference (95% CI) in delta PANSS” value [1, 14] was −19.6 (−31.7 to −7.5), the Effect size [1, 15] was 0.60 and the “Mean difference (95% CI) in delta PANSS” value [1, 15] was −13.0 (−24.7 to −1.2). The Effect size [1, 16] was 0.69, the “Mean difference (95% CI) in delta PANSS” value [1, 16] was −15.5 (−27.8 to −3.2) and the Effect size [1, 17] was 0.77. For the same compound, the “Mean difference (95% CI) in delta PANSS” value [1, 17] was −16.1 (−32.7 to 0.5), the Effect size ([1]; olanzapine-treated SULT4A1-1 positive patients compared to various other SULT4A1-1-drug combinations, CATIE) was −0.91 to −0.47 and the “delta PANSS” value ([1]; overall (not segmented by SULT4A1-1 status), CATIE) was −9. For the same compound, the “Responders (number, out of 58)” value ([1]; patients unselected for SULT4A1-1 status, 20% PANSS threshold, CATIE Caucasians) was 20, the “≦−20% (number of individuals; responders)” value ([2]; SULT4A1-1 Negative) was 15 and the “≧−20% (number of individuals; non-responders)” value ([2]; SULT4A1-1 Negative) was 30. For the same compound, the “≦−20% (number of individuals; responders)” value ([2]; SULT4A1-1 Positive) was 1, the “≧−20% (number of individuals; non-responders)” value ([2]; SULT4A1-1 Positive) was 3 and the Responders ([2]; SULT4A1-1 Positive, change in total PANSS ≦−20%) was 25%. For the same compound, the “Time to discontinuation, mean time in months” value ([3]; SULT4A1-1 Negative) was 10.0** Months, the “Length of Successful Treatment (CGI Months), Mean” value ([4]; SULT4A1-1 Positive) was 8.33^d Months and the “Length of Successful Treatment (CGI Months), Mean” value ([4]; Unsegmented) was 6.10 Months. For the same compound, the “HOSP (number of subjects hospitalized)” value (CATIE Caucasian subjects; [18]) was 1, the “HOSP (rate of hospitalization)” value (CATIE Caucasian subjects; [18]) was “(2.6%)” and the “HOSP (rate of hospitalization)” value (CATIE Caucasian subjects; SULT4A1-1 Positive, CATIE Phases 1, 2 and/or 3, listed as olanzapine) was 2.6%. For the same compound, the “HOSP (number of subjects hospitalized)” value (CATIE Caucasian subjects; [19]) was 22, the “HOSP (number of subjects hospitalized)” value (CATIE Caucasian subjects; [20]) was 23 and the “HOSP (rate of hospitalization)” value (CATIE Caucasian subjects; [20]) was “(14.2%)”. For the same compound, the “Nonresponders (number)” value ([5]; SULT4A1-1 Negative) was 14, the “Responders (number)” value ([5]; SULT4A1-1 Negative) was 3 and the “Nonresponders (number)” value ([5]; SULT4A1-1 Positive) was 4. The “Responders (number)” value ([5]; SULT4A1-1 Positive) was 3.

In the case of `OCCN1CCN(CCCN2c3ccccc3Sc3ccc(Cl)cc32)CC1` [Perphenazine], the “≦−20% (number of individuals with this percent change in total PANSS; responders)” value [1, 6] is reported as 16, the “≧−20% (number of individuals with this percent change in total PANSS; non-responders)” value [1, 6] is reported as 47 and the “≦−20% (number of individuals with this percent change in total PANSS; responders)” value [1, 7] is reported as 5. For the same compound, the “≧−20% (number of individuals with this percent change in total PANSS; non-responders)” value [1, 7] was 9, the “Non Responder (number)” value [1, 9] was 9 and the “Responder (number)” value [1, 9] was 5. The “≦−20% (number of individuals; responders)” value ([2]; SULT4A1-1 Negative) was 10, the “≧−20% (number of individuals; non-responders)” value ([2]; SULT4A1-1 Negative) was 27 and the “≦−20% (number of individuals; responders)” value ([2]; SULT4A1-1 Positive) was 0. The “≧−20% (number of individuals; non-responders)” value ([2]; SULT4A1-1 Positive) was 2, the “Time to discontinuation, mean time in months” value ([3]; SULT4A1-1 Positive) was 7.6** Months and the “HOSP (number of subjects hospitalized)” value (CATIE Caucasian subjects; [18]) was 1. The “HOSP (number of subjects hospitalized)” value (CATIE Caucasian subjects; [19]) was 9 and the “HOSP (number of subjects hospitalized)” value (CATIE Caucasian subjects; [20]) was 10.
